Assay results taken from PMC9739695, “Water-Soluble Salts Based on Benzofuroxan Derivatives—Synthesis and Biological Activity” (International Journal of Molecular Sciences, 2022).
Like-named read-outs stand apart in the source and are kept apart here.

Assays:
[1] = test system: glycolysis in SH-SY5Y cells; test: Glycolysis stress test (ECAR, Seahorse XF96e); assay type: cell-based, Human; details: 100 µM
Description: Using the cell metabolism analyzer Agilent Seahorse XF96e Analyzer (Seahorse Bioscience, North Billerica, MA, USA), the rate of extracellular acidification of the medium (ECAR) in cells of tumor origin SH-SY5Y was evaluated as a glycolysis measure.
The ability of compounds to suppress anaerobic glycolysis was studied using the Agilent Seahorse XF96e Analyzer (Seahorse Bioscience, North Billerica, MA, USA) by the level of hydrogen proton production in the studied samples on cell lines of neuroblastoma SH-SY5Y using a glycolysis stress test [62]. The rate of extracellular acidification of the medium was measured in real time, which made it possible to assess the intensity of glycolysis in cells by fixing the three main parameters of the glycolytic function: basal glycolysis, glycolytic capacity, and glycolytic reserve.
SH-SY5Y cells in the exponential growth phase were seeded in a 96-well Seahorse cell culture microplate. The planting density of the cell culture was 2 × 10^4/well. […]
The test compounds were added from port A at a concentration of 100 μM. To determine the effect of test compounds on basal glycolysis of neoplastic cells, 10 mM glucose was added from port B. The maximum glycolytic capacity was assessed by injecting oligomycin at a concentration of 1 μM from port C. […]

wheat seeds = test: Pre-sowing seed treatment, sowing qualities of wheat seeds; assay type: in vivo; details: for germination energy: control 82; for laboratory germination: control 85.7
Description: (§1) When evaluating the effectiveness of treatment of wheat, alfalfa, barley, rice, and sorghum seeds as fungicidal and bactericidal agents with preparation compounds at concentrations of 10, 20, and 40 mmol, their effect on the suppression of seed infection was evaluated.
[…] The sowing qualities were evaluated (germination energy for 3–4 days, laboratory germination for 7–8 days) according to GOST 12038-84 [60]. Sowing qualities of seeds were determined in wet chambers. According to the sample, 50 seeds were taken in 4-fold repetition.

SH-SY5Y (neuroblastoma) = test: Cell viability, MTT test; assay type: cell-based, Human; details: for IC50: Homo sapiens, SH-SY5Y, read-out: IC50 (concentration causing 50% inhibition of cell population growth)
Description: (§2) In this work, the cytotoxic potential of the water-soluble salts based on benzofuroxan was determined by the effect of compounds on the survival of the cell tumor origin cultures (SH-SY5Y, Hep2, A549, HeLa) using the MTT test. To understand how the synthesized compounds can influence the healthy microenvironment in the body, the effect of substances on the viability of a normal Hek 293 cell culture was additionally evaluated.
(§3) Human cell cultures of tumor origin—SH-SY5Y (neuroblastoma), HeLa (cervical tumor), Hep-2 (larynx carcinoma), A549 (adenocarcinomic human alveolar basal epithelial cells)—and normal cell line Hek 293 (human embryonic kidneys), provided by the Laboratory of Tumor Cell Genetics of the Scientific Research Institute of Carcinogenesis, N.N. Blokhin National Medical Research Center of Oncology, as well as the Institute of Cytology of the Russian Academy of Sciences, were grown in a nutrient medium DMEM (PanEco, Moscow, Russia) and MEM (PanEco, Moscow, Russia), containing fetal bovine serum (10% by volume) (ThermoFisher Scientific, Paisley, UK), Glutamax (2 mM) (Gibco, Scotland, UK), and penicillin-streptomycin (1% by volume) (PanEco, Moscow, Russia). The cultivation was carried out at 37 °C in a humidified CO2 atmosphere (5%).
(§4) Cell viability was determined by MTT test. Cells were seeded in a 96-well plate in the amount of 1 × 10^4 cells/200µLof complete nutrient medium and cultured at 37 °C in CO2 (5%). After 24 h of incubation, various concentrations of test compounds in the range from 0.1 to 100 μM, were added to the cell cultures, and then the cells were cultured under the same conditions for 24 and 72 h. For each concentration, the experiment was carried out in triplicate.
(§5) All compounds were dissolved in DMSO, then diluted with the medium to the required concentration. […] The DMSO was also added to the control wells in a volume of 1%. After the incubation time, MTT (3-(4,5-dimethylthiazol-2-yl)-2,5-diphenyltetrazolium bromide, 5 mg/mL) was added to each well and plates were additionally incubated for 2 h (until the characteristic color appeared).
(§6) Using a plate analyzer (Cytation3, BioTech Instruments Inc., Winooski, VT, USA), the optical density was determined at 530 nm. The concentration value causing 50% inhibition of cell population growth (IC50) was determined from dose-dependent curves.

[2] = test system: murine leukemia P388 in BDF1 mice; test: Antitumor activity in vivo, transplanted murine leukemia P388; details: for increase in the average lifespan (ILS): single i.p. injection; for lifespan of animals: single i.p., doses from 1/8 MPD to MPD, control animals all die by day 11
Description: The study of the antitumor activity of compounds 4e and 4g was carried out using transplanted experimental murine tumor leukemia P388. In the experiment, concentrations from 1.25 to 10 mg/kg were used for 4e, and from 0.625 to 5 mg/kg for 4g. The concentrations used correspond to values from 1/8 MPD to MPD for the studied compounds.
Studies of antitumor activity were carried out on hybrid male mice BDF1 [DBA2×C57Bl6] weighing from 22 to 24 g. In the experiment, clinically healthy animals were used, which were kept in the same conditions with a 12-h light and free access to water and food. Each experimental group included six animals. Transplantation of mouse leukemia P388 was performed intraperitoneally with a concentration of 10^6 cells in 200μLof 0.9% NaCl solution per animal. Compounds 4e and 4g were dissolved in 0.9% NaCl solution and administered intraperitoneally once in the dose range 1.25–10 mg/kg and 0.625–5 mg/kg, respectively. The compounds were administered the next day after tumor cell transplantation. Control animals received 0.9% NaCl solution. The effectiveness of therapy was assessed by the increase in the average life span (ILS, %) of the animals.

[3] = test system: bacterial microflora on rice seeds; test: Growth of bacterial microflora on treated rice seeds; assay type: cell-based
Description: (§7) During phytopathological analyses of agricultural crops, the species composition of fungal and bacterial microflora was established. Laboratory studies were carried out on two nutrient media potato-agar (ingredients: potatoes—200 g; agar-agar—20 g; distilled water—1000 mL.) and potato-dextrose agar (ingredients: potatoes—200 g;dextrose—20 g; agar-agar—20 g; distilled water—1000 mL), according to the guidelines.
as §1

[4] = test system: bacterial microflora on barley seeds; test: Growth of bacterial microflora on treated barley seeds; assay type: cell-based; details: all studied doses
Description: as §7, §1

HeLa (cervical tumor) = test: Cell viability, MTT test; assay type: cell-based; details: Homo sapiens, read-out: IC50 (concentration causing 50% inhibition of cell population growth)
Description: as §2, §3, §4, §5, §6

[5] = test system: A549 (adenocarcinomic human alveolar basal epithelial cells); test: Cell viability, MTT test; assay type: cell-based; details: read-out: IC50 (concentration causing 50% inhibition of cell population growth)
Description: as §2, §3, §4, §5, §6

Hep-2 (larynx carcinoma) = test: Cell viability, MTT test; assay type: cell-based; details: Homo sapiens, read-out: IC50 (concentration causing 50% inhibition of cell population growth)
Description: as §2, §3, §4, §5, §6

[6] = test system: fungal microflora (mushrooms) on alfalfa seeds; test: Growth of fungal microflora on treated alfalfa seeds; assay type: cell-based; details: 10 mmol
Description: as §7
When evaluating the effectiveness of treatment of wheat, alfalfa, barley, rice, and sorghum seeds as […], their effect on the suppression of seed infection was evaluated.

SMILES | germination energy (wheat seeds; 10 mmol) [%] | laboratory germination (wheat seeds; 10 mmol) [%] | germination energy (wheat seeds; 20 mmol) [%] | laboratory germination (wheat seeds; 20 mmol) [%] | germination energy (wheat seeds; 40 mmol) [%] | laboratory germination (wheat seeds; 40 mmol) [%] | IC50 (SH-SY5Y (neuroblastoma); 24 h) [µM] | IC50 (SH-SY5Y (neuroblastoma); 72 h) [µM] | lifespan of animals [2] | IC50 (HeLa (cervical tumor); 24 h) [µM] | IC50 (HeLa (cervical tumor); 72 h) [µM] | IC50 ([5]; A549, 24 h) [µM] | IC50 ([5]; A549, 72 h) [µM] | IC50 (Hep-2 (larynx carcinoma); HEp-2, 24 h) [µM] | IC50 (Hep-2 (larynx carcinoma); HEp-2, 72 h) [µM] | other results
O=[N+]([O-])c1c(Cl)cc2c(no[n+]2[O-])c1NCCCN1CCOCC1 [4e, 6-chloro-4-(3-(morpholino-4-ium)propylamino)-5-nitrobenzo[c][1,2,5]oxadiazole 1-oxide chloride] | 33.3 | 42.8 | 97 | 97.5 | 98 | 99 | 24.1 ± 1.22 | 20.2 ± 0.72 | up to 16 days | > 100 | 93.8 ± 2.53 | 90.2 ± 3.43 | 77.1 ± 1.36 | 83 ± 1.37 | 70.21 ± 0.54 | suppression of glycolytic function parameters ([1]; compared with control samples): 60%; sowing qualities of seeds compared with control (wheat seeds; 20 mmol): higher than in the case of controls; sowing qualities of seeds compared with control (wheat seeds; 40 mmol): higher than in the case of controls; selectivity index (SH-SY5Y (neuroblastoma); IC50 on neuroblastoma SH-SY5Y with respect to Hek 293, 24 h): more than 4; increase in the average lifespan (ILS) ([2]; 2.5 mg/kg): 28%; effect on bacterial microflora ([3]; 10 mmol): positive effect on the suppression of bacterial microflora; effect on bacterial microflora ([3]; 20 mmol): positive effect on the suppression of bacterial microflora; effect on bacterial microflora [4]: slight suppression of the bacterial microflora
CN(C)CCCNc1c([N+](=O)[O-])c(Cl)cc2c1no[n+]2[O-].Cl [4g, 6-chloro-4-(3-(dimethylammonio)propylamino)-5-nitrobenzo[c][1,2,5]oxadiazole 1-oxide chloride] | 42.8 | 47.6 | 80.9 | 90.4 | 80.9 | 80.9 | 20.9 ± 0.82 | 17.07 ± 0.03 | up to 16 days | 97.8 ± 3.31 | 83.1 ± 4.29 | 82 ± 1.54 | 64.2 ± 2.12 | 70.3 ± 1.28 | 58 ± 2.9 | glycolytic parameters (basal glycolysis, glycolytic capacity, glycolytic reserve) ([1]; ECAR): reaching a minimum; increase in the average lifespan (ILS) ([2]; 5 mg/kg): 25%; effect on fungal microflora [6]: positive effect on the suppression of fungal microflora
